The text below walks through data of the OligoGym collection.

“And” between values parts separate entries of the source, which are not always exact repeats. Equal values may be shown once. After the bases stand the sugars from the 5' end (letter, count) and the backbone: PS all phosphorothioate, else s phosphorothioate and o phosphodiester by linkage. Methylation of C is not given here. k = constrained ethyl (cEt); d = 2'-deoxy (DNA)

The series addresses MALAT1. Particulars: ASO, A431, 0.005 µM.
Regarding ATATTGCCGACCTCAC (sugars k3 d10 k3, PS), the target mRNA inhibition was found to be 26%. As to TGTTTAAGTCACCTTC (sugars k3 d10 k3, PS), the target mRNA inhibition is 74% and 63%. Consider CGGATTTTTACCAACC (sugars k3 d10 k3, PS), for which the target mRNA inhibition is 38%. Then GCCTCAATCCCACACC (sugars k3 d10 k3, PS), with 2%; and AAGTCTCGGGCTGCAG (sugars k3 d10 k3, PS), with 4%; and GTGCCTGGAATTATTA (sugars k3 d10 k3, PS), with 39%. In the case of CTAAGCAATATCTTAG (sugars k3 d10 k3, PS), the target mRNA inhibition is 15%.

As to ATCTGTTAACAGCTGC (sugars k3 d10 k3, PS), the target mRNA inhibition was 71% and 76%. The same measure for GCCTATCTTCTCCAGT (sugars k3 d10 k3, PS): 27%; for TCTTCTAAATTGGTTC (sugars k3 d10 k3, PS): 49%; for CTCTGCAGTTTCTATA (sugars k3 d10 k3, PS): 31%.

Consider TTTAATCATACTCCAG (sugars k3 d10 k3, PS), for which the target mRNA inhibition was 24%. The same measure for TAATACCCTTCTGTTA (sugars k3 d10 k3, PS): 19%. The same measure for CAAAGACCTCGACACC (sugars k3 d10 k3, PS): 18%.

Regarding AGGATCCAAGCTACTG (sugars k3 d10 k3, PS), the target mRNA inhibition is -13%. The same measure for TGATAACGAAGAGATA (sugars k3 d10 k3, PS): 15%. With CCTTAGGATAATAGCG (sugars k3 d10 k3, PS), the target mRNA inhibition is 60% and 51%. As for TAAGACCATCCCAAAA (sugars k3 d10 k3, PS), the target mRNA inhibition came out at 16%. Turning to TAGCTTCCTTCACCAA (sugars k3 d10 k3, PS), the target mRNA inhibition was -1%. Then CCAACTAATTGCCAAT (sugars k3 d10 k3, PS), with 40%; and TGCTGTTACCTCCCAC (sugars k3 d10 k3, PS), with 14%. As to ATCAGGTGAGGCTGAC (sugars k3 d10 k3, PS), the target mRNA inhibition is 23%. As to TTACTCTAATCACTGT (sugars k3 d10 k3, PS), the target mRNA inhibition turned out to be 33%.

Regarding AGGGACAGTAGGTATA (sugars k3 d10 k3, PS), the target mRNA inhibition was found to be 16%. Consider AAGTTACATGTTCCCA (sugars k3 d10 k3, PS), for which the target mRNA inhibition came out at 39%. Regarding GATCTGGTCCATTAAA (sugars k3 d10 k3, PS), the target mRNA inhibition was 25%. Consider AGCCTTCAGAGATTCA (sugars k3 d10 k3, PS), for which the target mRNA inhibition was 75% and 91%. In the case of ACTCAGCCTTTATCAC (sugars k3 d10 k3, PS), the target mRNA inhibition is -5%. Consider ACTATTTCTCCAGGAC (sugars k3 d10 k3, PS), for which the target mRNA inhibition is 20%. The same measure for CTGCAAGGTCTCATAC (sugars k3 d10 k3, PS): 24%. Consider ATTACCTAAACCCACC (sugars k3 d10 k3, PS), for which the target mRNA inhibition was -10%. TCAACTGGGAATACTC (sugars k3 d10 k3, PS): the target mRNA inhibition was found to be 17%. As for ATTCATGAGTATAAGC (sugars k3 d10 k3, PS), the target mRNA inhibition is 29%. For TTTTAATCACCTTCGG (sugars k3 d10 k3, PS), the target mRNA inhibition came out at 44%. Turning to ACCTTGAGTCATTTGC (sugars k3 d10 k3, PS), the target mRNA inhibition was 66%. TTTATCACTCAGCTGG (sugars k3 d10 k3, PS): the target mRNA inhibition turned out to be 53%. Consider TGTGTTATGCCTGGTT (sugars k3 d10 k3, PS), for which the target mRNA inhibition was 1%.

With CGAACTGCTGCTTGCT (sugars k3 d10 k3, PS), the target mRNA inhibition came out at 40%. As for CGAAGAGATACCTGTC (sugars k3 d10 k3, PS), the target mRNA inhibition was 23%.

Regarding ATGGACATCTCTTCCA (sugars k3 d10 k3, PS), the target mRNA inhibition stood at 30%. In the case of CAACATTTGGCCTACT (sugars k3 d10 k3, PS), the target mRNA inhibition stood at 17%.

As to AAAGAGTAACTACCAG (sugars k3 d10 k3, PS), the target mRNA inhibition amounted to 22%. As for GGAAATCTTAGAAACG (sugars k3 d10 k3, PS), the target mRNA inhibition was 36%. For the sequence TGAGTGAAGTGTACTA (sugars k3 d10 k3, PS), the target mRNA inhibition turned out to be 42%. In the case of TAGTTTACCACCTTTT (sugars k3 d10 k3, PS), the target mRNA inhibition was found to be 15%.

Consider GTCCCATAACTGATCT (sugars k3 d10 k3, PS), for which the target mRNA inhibition is 35%. With CGCTTTGTTGTCTCTC (sugars k3 d10 k3, PS), the target mRNA inhibition is 87% and 99%. AGTAACCTATTGACTA (sugars k3 d10 k3, PS): the target mRNA inhibition was -16%.

As to AGAACTAGTGGTTCCC (sugars k3 d10 k3, PS), the target mRNA inhibition was -3%. For the sequence TTTTAAAAAGGCTCGA (sugars k3 d10 k3, PS), the target mRNA inhibition came to 12%. The same measure for CTGCCAACTAATTGCC (sugars k3 d10 k3, PS): -32%; for AGCTGAACTATCACAA (sugars k3 d10 k3, PS): 5%; for CTCTCATTTATTTCGG (sugars k3 d10 k3, PS): 59% and 84%. For the sequence CTCAAAGTCCAATGCA (sugars k3 d10 k3, PS), the target mRNA inhibition worked out at 48%. For AGTATTATAATAGAGC (sugars k3 d10 k3, PS), the target mRNA inhibition was found to be 20%. On to AGTCCTAGCTTCATCA (sugars k3 d10 k3, PS), for which the target mRNA inhibition was 27%. Regarding ACCACCTGGAATGGCC (sugars k3 d10 k3, PS), the target mRNA inhibition was determined as 15%. In the case of GGTTAAGCACTTTTAA (sugars k3 d10 k3, PS), the target mRNA inhibition amounted to 38%.

With CTGCGACTTGCTCCCA (sugars k3 d10 k3, PS), the target mRNA inhibition came to 10%.

Turning to AGAACTGCTCTAGTTT (sugars k3 d10 k3, PS), the target mRNA inhibition was -6%. Then TCACAAAACCCCCGGA (sugars k3 d10 k3, PS), with 16%; and AAGCACCGCTTGAGAT (sugars k3 d10 k3, PS), with 8% and 13%. With AGCTACAACAAGTAAG (sugars k3 d10 k3, PS), the target mRNA inhibition was determined as 12%. As to ACTCTTGATCTTGAAT (sugars k3 d10 k3, PS), the target mRNA inhibition was found to be 43%. TAATCATACTCCAGTC (sugars k3 d10 k3, PS): the target mRNA inhibition is -3%. On to GCACTCATATGCAATT (sugars k3 d10 k3, PS), for which the target mRNA inhibition was found to be 6%. In the case of AAACTTGCTTACACAC (sugars k3 d10 k3, PS), the target mRNA inhibition was found to be 25%. CCGGAAATCGGCCTAC (sugars k3 d10 k3, PS): the target mRNA inhibition was determined as 20%.

For TTAACAATTTGCAGGC (sugars k3 d10 k3, PS), the target mRNA inhibition is 66% and 79%. With AGTAGACCAACTAAGC (sugars k3 d10 k3, PS), the target mRNA inhibition was determined as 25%. As to CGCCGCAGGGATTTGA (sugars k3 d10 k3, PS), the target mRNA inhibition is 19%. Consider CTGAACTATCACAATT (sugars k3 d10 k3, PS), for which the target mRNA inhibition stood at 28%. On to ATAGAGCTACTTAGCT (sugars k3 d10 k3, PS), for which the target mRNA inhibition worked out at 19%.

Consider TACTGAAAACTCCCCC (sugars k3 d10 k3, PS), for which the target mRNA inhibition amounted to 22%. With TACCACCTTTTGAAGG (sugars k3 d10 k3, PS), the target mRNA inhibition stood at 13%.

Consider GGCCTTTTCTAACATA (sugars k3 d10 k3, PS), for which the target mRNA inhibition worked out at 2%.

Take TCCAAGCTACTGGCTG (sugars k3 d10 k3, PS): the target mRNA inhibition turned out to be 20%. For TGATCATAATCTCCCA (sugars k3 d10 k3, PS), the target mRNA inhibition came to 43%. For GCTTTCCCTGTGGCCT (sugars k3 d10 k3, PS), the target mRNA inhibition worked out at 10%.

Take AGTAAGCCCCACCCCC (sugars k3 d10 k3, PS): the target mRNA inhibition was determined as 29%. Then CAGGACTTGGCAGTCT (sugars k3 d10 k3, PS), with 14%; and GTTAAGAGAAGCCCAG (sugars k3 d10 k3, PS), with 20%. Then AAGACCTCGACACCAT (sugars k3 d10 k3, PS), with 44%; and CTCTATACTTTGAAGG (sugars k3 d10 k3, PS), with 20%. In the case of CCTGAAAAAGTCTTAG (sugars k3 d10 k3, PS), the target mRNA inhibition stood at 28%. As to GCAAATCGCCATGGAA (sugars k3 d10 k3, PS), the target mRNA inhibition turned out to be 21%.

For ACGAAACATTGGCACA (sugars k3 d10 k3, PS), the target mRNA inhibition is 62% and 40%. Then AACCTTCATGACCCTA (sugars k3 d10 k3, PS), with 20%. The same measure for GACCTCGACACCATCG (sugars k3 d10 k3, PS): 44%. With CAGTAACATCTGATTC (sugars k3 d10 k3, PS), the target mRNA inhibition is 57% and 78%. The same measure for GAGAAATCGGAGCAGC (sugars k3 d10 k3, PS): 15%; for ATACCCTTCTGTTAAC (sugars k3 d10 k3, PS): 2%.

For TGATAGTTCAGGGCTT (sugars k3 d10 k3, PS), the target mRNA inhibition worked out at 9%. As to AATGGAGGTATGACAT (sugars k3 d10 k3, PS), the target mRNA inhibition is 5%. Then TCCATTACGCAACTGA (sugars k3 d10 k3, PS), with 9%. The same measure for TCCGCTCAAATCCTGA (sugars k3 d10 k3, PS): 26%.

Take CACGAACTGCTGCTTG (sugars k3 d10 k3, PS): the target mRNA inhibition is 55%. The same measure for AAGGATCCAAGCTACT (sugars k3 d10 k3, PS): 8%; for ATCTCAACCTCCGTCA (sugars k3 d10 k3, PS): 34%.
